Here are results for eleven molecules from ChEMBL document CHEMBL1201862, “PubChem BioAssay data set” (2004).

Among the test systems are A498; ACHN; CCRF-CEM; HCC 2998; HOP-62; Hs-578T; K562; KM12; M14; MDA-MB-435; NCI-H226; OVCAR-4; SNB-19; SW-620; T47D; UACC-257; HL-60; SK-OV-3; NCI-H522.
Holding throughout (assay): NCI-60 cell line screen, 48 h

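Protocol summary: plate cells (96-well), add compound at 5 concentrations, incubate 48 h, interpolate endpoints linearly. The concentration for 50% growth inhibition is given as GI50.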 Active and inactive are the calls of the source. Rule as the data show it: active = GI50 up to about 1.1 µM and inactive = higher.

As to `COc1ccc2c(c1)CCC/C2=N\NS(=O)(=O)c1c(C)cc(C)cc1C`, the GI50 in the assay on A498 was 31.8 µM (inactive); in the assay with ACHN, 27.7 µM (inactive); with CCRF-CEM it was 27.1 µM (inactive); in the assay on HCC 2998, 41.5 µM (inactive); with HOP-62, 43.4 µM (inactive); with Hs-578T, 30.6 µM (inactive). The GI50 in the assay with K562 is 18.1 µM (inactive); in the assay with KM12, 16 µM (inactive); in the assay on M14, 33.2 µM (inactive); with MDA-MB-435, 27.7 µM (inactive); with NCI-H226 it was 22.2 µM (inactive); in the assay with OVCAR-4, 29.9 µM (inactive). The GI50 in the assay with SNB-19 was 41.6 µM (inactive); with SW-620, 28.1 µM (inactive); with T47D it was 16.5 µM (inactive); in the assay with UACC-257, 39.2 µM (inactive).
Take `Cc1ccc(/N=C2\OP(=O)(Nc3ccc(C)cc3)Oc3ccccc32)cc1` (configuration not stated): the GI50 in the assay on A498, in the assay with ACHN, in the assay with CCRF-CEM, in the assay with HCC 2998, in the assay on HL-60 and in the assay with HOP-62 was > 100 µM (inactive) in each case. The GI50 in the assay with Hs-578T is > 100 µM (inactive); in the assay on K562, 50.6 µM (inactive); with KM12, > 100 µM (inactive); in the assay on M14, 29.3 µM (inactive); in the assay on MDA-MB-435, > 100 µM (inactive); in the assay on NCI-H226, > 100 µM (inactive). The GI50 in the assay with OVCAR-4, with SK-OV-3, in the assay with SNB-19, with SW-620, in the assay with T47D and in the assay on UACC-257 was > 100 µM (inactive) each time.
For the molecule `CC(N)(CC(O)(C(F)(F)Cl)C(F)(F)Cl)C(=O)O` (configuration not stated), the GI50 in the assay on A498, with ACHN, in the assay on CCRF-CEM, in the assay on HCC 2998, in the assay with HOP-62 and in the assay with Hs-578T was > 10 µM (inactive) in each case. Further, the GI50 with K562, in the assay with KM12, in the assay with M14, in the assay on MDA-MB-435, in the assay on NCI-H226 and in the assay with NCI-H522 was > 10 µM (inactive) in each case. Further, the GI50 in the assay on OVCAR-4, in the assay with SK-OV-3, in the assay with SNB-19, in the assay on SW-620, in the assay with T47D and in the assay on UACC-257 was > 10 µM (inactive) each time.
`COC(=O)C(=O)C(C(=O)C(=O)Nc1cc(C)ccc1C)c1nc2ccccc2nc1O` (configuration not stated): the GI50 in the assay on A498 is > 100 µM (inactive); in the assay with ACHN it was > 100 µM (inactive); in the assay with CCRF-CEM, 36.1 µM (inactive); in the assay with HCC 2998, > 100 µM (inactive); in the assay with HOP-62 it was > 100 µM (inactive); in the assay on Hs-578T it was 74.3 µM (inactive). The GI50 with K562, in the assay on KM12, in the assay on M14, with MDA-MB-435, in the assay with NCI-H226 and in the assay on NCI-H522 was > 100 µM (inactive) each time. In addition, the GI50 in the assay on OVCAR-4, in the assay on SK-OV-3, in the assay with SNB-19, in the assay with SW-620, with T47D and in the assay with UACC-257 was > 100 µM (inactive) in each case.
In the case of `NNC(=O)c1ccc[n+](CCc2ccccc2)c1`, the GI50 with A498, with ACHN, in the assay with HCC 2998, with HL-60, in the assay with HOP-62 and in the assay with Hs-578T was > 100 µM (inactive) throughout. The GI50 with K562, in the assay on KM12, in the assay on M14, in the assay with MDA-MB-435, with NCI-H226 and in the assay with NCI-H522 was > 100 µM (inactive) in each case. Further, the GI50 in the assay on OVCAR-4, with SK-OV-3, in the assay on SNB-19, with SW-620, with T47D and in the assay with UACC-257 was > 100 µM (inactive) in each case.
On to `CCOC(=O)c1cc2c3c(cc(OC)c2[nH]1)N(C(=O)OCC)CC3`, for which the GI50 in the assay with A498, in the assay with CCRF-CEM, in the assay with HCC 2998, in the assay with HL-60, with HOP-62 and in the assay on Hs-578T was > 100 µM (inactive) each time. Besides, the GI50 with K562, in the assay on KM12, in the assay with M14, with MDA-MB-435, in the assay on NCI-H226 and in the assay with OVCAR-4 was > 100 µM (inactive) each time. Besides, the GI50 in the assay with SK-OV-3, in the assay on SNB-19, with SW-620, in the assay with T47D and in the assay on UACC-257 was > 100 µM (inactive) each time.
`O=C(O)[C@@H]1CCCN1` [PROLINE]: the GI50 with A498, in the assay with ACHN, with HCC 2998, with HL-60, with HOP-62 and in the assay with Hs-578T was > 100 µM (inactive) each time. The GI50 with K562, in the assay with KM12, with M14, with MDA-MB-435, with NCI-H226 and in the assay on NCI-H522 was > 100 µM (inactive) each time. For the same molecule, the GI50 in the assay on OVCAR-4, in the assay with SK-OV-3, in the assay on SNB-19, in the assay with SW-620, in the assay on T47D and in the assay with UACC-257 was > 100 µM (inactive) in each case.
Regarding `Cc1cn([C@H]2CN(O)C[C@@H](CO)O2)c(=O)[nH]c1=O`, the GI50 in the assay on A498, with ACHN, in the assay on HCC 2998, in the assay with HL-60, in the assay on HOP-62 and in the assay with Hs-578T was > 100 µM (inactive) in each case. Also, the GI50 with K562, with KM12, with M14, with MDA-MB-435, with NCI-H226 and in the assay on OVCAR-4 was > 100 µM (inactive) throughout. The GI50 in the assay with SK-OV-3, in the assay on SNB-19, with SW-620, in the assay on T47D and in the assay with UACC-257 was > 100 µM (inactive) in each case.
In the case of `CCOC(=O)[C@@H]1ON2O[C@H](OC3CCCCC3c3ccccc3)C[C@H]3OC(=O)[C@@H]1C32` (some centres not stated), the GI50 in the assay on A498 was > 100 µM (inactive); with ACHN it was > 100 µM (inactive); in the assay on CCRF-CEM, 0.209 µM (active); with HCC 2998, 64.6 µM (inactive); in the assay on HOP-62 it was > 100 µM (inactive); with Hs-578T it was > 100 µM (inactive). The GI50 in the assay on K562 was > 100 µM (inactive); in the assay with KM12, 80 µM (inactive); in the assay on M14 it was > 100 µM (inactive); with MDA-MB-435, > 100 µM (inactive); in the assay on NCI-H226 it was > 100 µM (inactive); in the assay with NCI-H522 it was 67.6 µM (inactive). Moreover, the GI50 in the assay with SK-OV-3, in the assay with SW-620, with T47D and in the assay with UACC-257 was > 100 µM (inactive) throughout.
Regarding `O=C(C(=O)n1ccc2ccccc21)c1c[nH]c2ccccc12`, the GI50 with ACHN, in the assay on CCRF-CEM, in the assay on HCC 2998, in the assay with HL-60, in the assay on HOP-62 and in the assay on Hs-578T was > 10 µM (inactive) throughout. Besides, the GI50 in the assay with K562, in the assay on KM12, with M14, in the assay on MDA-MB-435, in the assay on NCI-H226 and in the assay on NCI-H522 was > 10 µM (inactive) in each case. Besides, the GI50 in the assay on OVCAR-4, in the assay with SK-OV-3, with SNB-19, with SW-620, with T47D and in the assay with UACC-257 was > 10 µM (inactive) in each case.
For `CCn1c(SCc2nnc(Nc3ccccc3)s2)nc2ccccc2c1=O`, the GI50 with A498 was 1.67 µM (inactive); in the assay on ACHN, 2.85 µM (inactive); in the assay with CCRF-CEM, 47.6 µM (inactive); in the assay on HCC 2998, 6.68 µM (inactive); in the assay with HOP-62, 2.17 µM (inactive); in the assay on Hs-578T, 2.39 µM (inactive). In addition, the GI50 was 19.8 µM (inactive) in the assay on K562; 2.38 µM (inactive) in the assay with KM12; 10.4 µM (inactive) in the assay on M14; 10.3 µM (inactive) in the assay on MDA-MB-435; 2.19 µM (inactive) in the assay on NCI-H226; 2.09 µM (inactive) in the assay on NCI-H522. The GI50 is 1.82 µM (inactive) in the assay on OVCAR-4; 2.62 µM (inactive) with SK-OV-3; 3.5 µM (inactive) in the assay with SNB-19; 16.8 µM (inactive) in the assay with SW-620; 5.57 µM (inactive) in the assay with T47D; 11.8 µM (inactive) in the assay on UACC-257.
